Reference: the supplement of paper PMC11061612

What was measured:
Test in all cases: combination Emax (second highest fraction inhibited in the dose matrix, 72 h); higher = more inhibition; extreme values may be limits of the assay
[1] = tested on: MRK-nu-1 (Breast Carcinoma)
Outline: (§1)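 Cell lines in DMEM/F12 or RPMI with 10% FBS were plated in 1536-well plates, held 24 hours at 37°C, 5% CO2, then given two-drug dose matrices for 72 hours (DMSO typically 0.2%). Viability was read by CellTiter-Glo 2.0 luminescence and scaled as inhibition from 0 (vehicle wells) to 1 (blank wells). Combination Emax is the second-highest inhibition in the matrix; Bliss excess is observed combination effect minus expected EA + EB − EA·EB, EA and EB being single-agent effects.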

[2] = tested on: C2BBe1 (Colorectal Carcinoma)
Outline: as §1

[3] = tested on: HT-3 (Cervical Carcinoma)
Outline: as §1

[4] = tested on: CAL-85-1 (Breast Carcinoma)
Outline: as §1

[5] = tested on: SUP-HD1 (Hodgkin's Lymphoma)
Outline: as §1

[6] = tested on: OVKATE (Ovarian Carcinoma)
Outline: as §1

[7] = tested on: NCI-H2452 (Mesothelioma)
Outline: as §1

[8] = tested on: NTERA-2-cl-D1 (Other Solid Carcinomas)
Outline: as §1

[9] = tested on: BC-1 (B-Cell Non-Hodgkin's Lymphoma)
Outline: as §1

[10] = tested on: IGROV-1 (Ovarian Carcinoma)
Outline: as §1

[11] = tested on: MG-63 (Osteosarcoma)
Outline: as §1

[12] = tested on: SK-MEL-24 (Melanoma)
Outline: as §1

[13] = tested on: SW1463 (Colorectal Carcinoma)
Outline: as §1

[14] = tested on: COR-L105 (Lung Adenocarcinoma)
Outline: as §1

[15] = tested on: JURL-MK1 (Chronic Myelogenous Leukemia)
Outline: as §1

[16] = tested on: SBC-3 (Small Cell Lung Carcinoma)
Outline: as §1

[17] = tested on: RS4-11 (B-Lymphoblastic Leukemia)
Outline: as §1

[18] = tested on: SBC-5 (Small Cell Lung Carcinoma)
Outline: as §1

[19] = tested on: NCI-H835 (Other Solid Carcinomas)
Outline: as §1

[20] = tested on: NCI-H1435 (Non-Small Cell Lung Carcinoma)
Outline: as §1

| SMILES | combination Emax [1] | combination Emax [2] | combination Emax [3] | combination Emax [4] | combination Emax [5] | combination Emax [6] | combination Emax [7] | combination Emax [8] | combination Emax [9] | combination Emax [10] | combination Emax [11] | combination Emax [12] | combination Emax [13] | combination Emax [14] | combination Emax [15] | combination Emax [16] | combination Emax [17] | combination Emax [18] | combination Emax [19] | combination Emax [20] |
| --- | --- | --- | --- | --- | --- | --- | --- | --- | --- | --- | --- | --- | --- | --- | --- | --- | --- | --- | --- | --- |
| COc1nnc2ccc(N3CCC(c4ccc(OCCN5CCN(C)C(=O)[C@H]5C)cc4)CC3)nn12 [AZD5153] + CC1(C)CCC(CN2CCN(c3ccc(C(=O)NS(=O)(=O)c4ccc(NCC5CCOCC5)c([N+](=O)[O-])c4)c(Oc4cnc5[nH]ccc5c4)c3)CC2)=C(c2ccc(Cl)cc2)C1 [Venetoclax] (first compound max 1 µM, 7x7, partner max 1 µM) | 0.468 | 0.378 | 0.278 | 0.674 | 0.955 | 0.35 | 0.411 | 0.654 | 0.935 | 0.669 | 0.646 | 0.474 | 0.581 | 0.507 | 0.873 | 0.721 | 1 | 0.518 | 0.372 | 0.169 |
| CC(=O)c1c(C)c2cnc(Nc3ccc(N4CCNCC4)cn3)nc2n(C2CCCC2)c1=O [Palbociclib] + CC1(C)CCC(CN2CCN(c3ccc(C(=O)NS(=O)(=O)c4ccc(NCC5CCOCC5)c([N+](=O)[O-])c4)c(Oc4cnc5[nH]ccc5c4)c3)CC2)=C(c2ccc(Cl)cc2)C1 [Venetoclax] (first compound max 10 µM, 7x7, partner max 1 µM) | 0.37 | 0.111 | 0.116 | 0.0543 | 0.758 | 0.12 | 0.282 | 0.134 | 0.917 | 0.537 | 0.345 | 0.182 | 0.603 | 0.0862 | 0.661 | 0.613 | 1 | 0.23 | 0.255 | 0.132 |
| COc1cccc(OCCCN)c1-c1cc(Nc2cnc(C#N)cn2)n[nH]1 [Prexasertib] + CCc1c2c(nc3ccc(O)cc13)-c1cc3c(c(=O)n1C2)COC(=O)[C@]3(O)CC [SN-38] (first compound max 1 µM, 7x7, partner max 0.3 µM) | 0.84 | 0.708 | 0.933 | 0.85 | 0.954 | 0.258 | 0.895 | 0.981 | 0.997 | 0.863 | 0.964 | 0.837 | 0.741 | 0.488 | 1 | 0.957 | 1 | 0.997 | 0.632 | 0.481 |
| CS(=O)(=O)CCNCc1ccc(-c2ccc3ncnc(Nc4ccc(OCc5cccc(F)c5)c(Cl)c4)c3c2)o1 [Lapatinib] + NC1(c2ccc(-c3nc4ccn5c(=O)[nH]nc5c4cc3-c3ccccc3)cc2)CCC1 [MK-2206] (first compound max 10 µM, 7x7, partner max 10 µM) | 0.361 | – | – | 0.9 | – | 0.537 | 0.554 | 0.911 | 0.957 | – | 0.924 | 0.949 | 0.868 | 0.825 | – | 0.917 | – | 0.853 | 0.868 | 0.665 |
| CCc1c2c(nc3ccc(O)cc13)-c1cc3c(c(=O)n1C2)COC(=O)[C@]3(O)CC [SN-38] + O=C(c1cc(Cc2n[nH]c(=O)c3ccccc23)ccc1F)N1CCN(C(=O)C2CC2)CC1 [Olaparib] (first compound max 0.3 µM, 7x7, partner max 10 µM) | 0.868 | – | 0.979 | 0.702 | 0.895 | 0.224 | 0.316 | 1 | 1 | – | 0.896 | 0.775 | 0.473 | 0.401 | 1 | 0.979 | – | – | 0.268 | 0.326 |
| C[C@@H](Nc1cc(F)cc(F)c1)c1cc(C(=O)N(C)C)cc2c(=O)cc(N3CCOCC3)oc12 [AZD8186] + CC(=O)c1c(C)c2cnc(Nc3ccc(N4CCNCC4)cn3)nc2n(C2CCCC2)c1=O [Palbociclib] (first compound max 10 µM, 7x7, partner max 10 µM) | 0.36 | – | – | 0.164 | – | 0.264 | 0.417 | 0.343 | 0.93 | – | 0.633 | 0.449 | 0.722 | 0.392 | – | 0.709 | – | – | 0.802 | 0.361 |
| C[C@@H](Oc1cc(-c2cnn(C3CCNCC3)c2)cnc1N)c1c(Cl)ccc(F)c1Cl [Crizotinib] + Cn1cnc2c(F)c(Nc3ccc(Br)cc3Cl)c(C(=O)NOCCO)cc21 [Selumetinib] (first compound max 10 µM, 7x7, partner max 10 µM) | 0.224 | – | – | 0.412 | – | 0.193 | 0.551 | 0.742 | 0.838 | – | 0.672 | 0.93 | 0.622 | 0.472 | – | 0.97 | – | – | 0.646 | 0.136 |
| CS(=O)(=O)CCNCc1ccc(-c2ccc3ncnc(Nc4ccc(OCc5cccc(F)c5)c(Cl)c4)c3c2)o1 [Lapatinib] + Cn1cnc2c(F)c(Nc3ccc(Br)cc3Cl)c(C(=O)NOCCO)cc21 [Selumetinib] (first compound max 10 µM, 7x7, partner max 10 µM) | 0.441 | – | – | 0.85 | – | 0.31 | 0.466 | 0.339 | 0.787 | – | 0.453 | 0.853 | 0.868 | 0.682 | – | 0.321 | – | – | 0.257 | 0.559 |
